From US10815196B2, “(S)-CSA salt of S-ketamine, (R)-CSA salt of S-ketamine and processes for the preparation of S-ketamine” (Janssen Pharmaceutica NV, priority 2015, dated 2020) come the findings set out here.

Type in all cases: physicochemical
Series [1] can be described thus: Storage of amorphous anhydrous form at ambient conditions. Here is the method: . The amorphous anhydrous form of (S)-CSA salt of S-ketamine was also obtained (in a mixture with the monohdrate form) by slurrying the crystalline monohydrate form of (S)-CSA salt of S-ketamine in 2-methyl THF or isopropyl acetate at about 80° C. for about 4 days.
Series [2] can be described thus: Approximate solubility by stepwise dilution of a suspension. To be noted: thermodynamic from solid. How it is done: The approximate solubility of the monohydrate crystalline form of the (S)-CSA salt of S-ketamine was measured by stepwise dilution of a suspension of about 10 mg of the sample in 0.05 mL solvent. Table 4 below lists the approximate solubility, denoted “S”. If a sample was not dissolved by addition of a total of 10-12 mL of solvent, the solubility is indicated as <1 mg/mL in the Table 4, below.

A short description of series [3]: Solubility in select solvents after 24 hours, filtrate analyzed by HPLC. Here is the method:
Additionally, the solubility of the monohydrate crystalline form of the (S)-CSA salt of S-ketamine in select solvents was determined as follows: 21 g of (S)-CSA salt of S- ketamine was dissolved in 100 mL of solvent (as listed in Table 5 below). After 24 hours, the solutions were analyzed visually. If the compound was completely dissolved, solubility was above 20 g/100 mL. If the compound was not completely dissolved, any remaining precipitate was filtered off, the filtrate was diluted 400-fold with HPLC dilution solvent (or acetonitrile/HPLC dilution solvent) and analyzed by HPLC, with results as listed in Table 5, below.

Series [4] can be described thus: Dynamic Vapor Sorption (DVS) measurement. Here is the method:
Dynamic Vapor Sorption (DVS) measurements (where completed) were measured using a Projekt Messtechnik Sorptions Prufsystem SPS 11 or Surface Measurement Systems DVS-1 scanning (cycling relative humidity and hodling the sample at a set relative humidity) as follow: (a) holding sample at 50% RH for 2 hours; (b) 50% RH to 0% RH (5%/h); holding at 0% RH for 5 hours; (c) 0% RH to 95% RH (5%/h); holding at 95% RH for 5 hours; and (d) 95% RH to 50% RH (5%/h); holding at 50% RH for 2 hours.

The next series in a line: TG-FTIR measurement. To be noted: 25° C. to 300° C., 10K/min, nitrogen. How it is done:
ThermoGravimetric-Fourier Transform InfraRed (TG-FTIR) measurements, where carried out were measures using a Netzsche Thermo-Microbalance TG209 with Bruker FT-IR Spectrometer Vector 22, with aluminum crucible with microhoel, nitrogen atmosphere and scanning form 25° C. to 300° C. at a heating rate of 10K/min.

Some results are limits rather than exact numbers.

As for `CC1(C)[C@@H]2CC[C@@]1(CS(=O)(=O)O)C(=O)C2.CN[C@]1(c2ccccc2Cl)CCCCC1=O`, the Hygroscopicity result in series [1] (amorphous, anhydrous form) is “hygroscopic”. Also, the “Form stability on storage” value in series [1] (storage at ambient conditions) is reported as “rapidly converts to the monohydrate form”.

`CN[C@]1(c2ccccc2Cl)CCCCC1=O` [(S)-2-(2-chlorophenyl)-2-(methylammonium)cyclohexanone(+)-camphorsulfonate monohydrate]: the solubility is 20 to 24 mg/mL in series [2] (10:1 acetone:water, organic solvent or mixture, solvent: 10:1 aectobne:water); 93 to 189 mg/mL in series [2] (aqueous with cosolvent or surfactant or cyclodextrin, solvent: 1:1 2-propanol:water); 58 to 77 mg/mL in series [2] (aqueous with cosolvent or surfactant or cyclodextrin, solvent: 1:1 acetone:water); 5 to 6 mg/mL in series [2] (organic solvent or mixture, solvent: 1,4-dioxane); 10 to 11 mg/mL in series [2] (organic solvent or mixture, solvent: 1:1 2-propanol:isopropyl acetate); 6 to 8 mg/mL in series [2] (organic solvent or mixture, solvent: 2-methyl THF saturated with water). In addition, the solubility in series [2] (organic solvent or mixture, solvent: 2-methyl-THF) lay within 5 to 7 mg/mL; in series [2] (organic solvent or mixture, solvent: 2-propanol), 22 to 25 mg/mL; in series [2] (organic solvent or mixture, solvent: 10:1 2-propanol:water), 24 to 28 mg/mL; in series [2] (organic solvent or mixture, solvent: DCM) it was 67 to 101 mg/mL; in series [2] (organic solvent or mixture, solvent: DMF), 91 to 185 mg/mL; in series [2] (organic solvent or mixture, solvent: DMSO), 106 to 212 mg/mL. Moreover, the solubility in series [2] (organic solvent or mixture, solvent: TBME) is under 1 mg/mL; in series [2] (organic solvent or mixture, solvent: THF), 5 to 7 mg/mL; in series [2] (organic solvent or mixture, solvent: acetone), 5 to 6 mg/mL; in series [2] (organic solvent or mixture, solvent: acetonitrile), 22 to 24 mg/mL; in series [2] (organic solvent or mixture, solvent: anisole), under 1 mg/mL; in series [2] (organic solvent or mixture, solvent: ethanol), 67 to 100 mg/mL. Also, the solubility in series [2] (organic solvent or mixture, solvent: ethyl acetate) was under 1 mg/mL; in series [2] (organic solvent or mixture, solvent: heptane) it was under 1 mg/mL; in series [2] (organic solvent or mixture, solvent: isopropyl acetate), under 1 mg/mL; in series [2] (organic solvent or mixture, solvent: methanol), over 226 mg/mL; in series [2] (organic solvent or mixture, solvent: toluene), under 1 mg/mL; in series [2] (solvent: water), 20 to 24 mg/mL. In addition, the “Solubility at 23.6° C.” value was 7.275 g/100 mL in series [3] (solvent: 2-propanol); 18.200 g/100 mL in series [3] (solvent: N,N-dimethylacetamide); 18.267 g/100 mL in series [3] (solvent: N,N-dimethylformamide); 18.209 g/100 mL in series [3] (solvent: acetic acid); 0.578 g/100 mL in series [3] (solvent: acetone (2-propanone)); 18.589 g/100 mL in series [3] (solvent: dichloromethane/methanol (50/50 v/v)). Further, the “Solubility at 23.6° C.” value in series [3] (solvent: ethanol) worked out at 18.297 g/100 mL; in series [3] (solvent: methanol), 18.457 g/100 mL. For the same molecule, the solubility (thermodynamic) at 24 h in series [3] (thermodynamic from solid, solvent: demineralized water, 23.6° C.) was found to be 53.4 mg/mL. Moreover, in series [4] (cycling 0% RH to 95% RH), the Hygroscopicity entry is “no hygroscopicity”. Further, the “Physical stability at elevated relative humidity” value in series [4] (elevated relative humidity) is reported as “physical stability”. Moreover, the Chemical decomposition temperature entry in “TG-FTIR measurement” was “above 230 °C”.
